Where a name gives a salt, the structure may show the parent alone.
Key:
[1] = tested on: HBV mutant L180M double (rt L180M, M204V); assay: Antiviral testing in HepG2 cells transduced with recombinant HBV/baculovirus, L180M double mutant; assay type: cell-based, hepatitis B virus; settings: area under dose-response curve, value relative to WT = 1.0
Procedure: (§1) The sensitivity/resistance profile of HBV mutants to adefovir, tenofovir and other antiviral agents was examined in vitro using recombinant HBV/baculovirus. The procedure for analysing the resistance profile is outlined in the following Examples 7-14.
(§2) Sf21 insect cells were maintained in supplemented Grace's insect medium further supplemented with 10% v/v heat-inactivated fetal bovine serum (Gibco BRL, Gaithersburg, Md.) in humidified incubator at 28 C with CO2. HepG2 cells were maintained in minimal essential medium supplemented with 10% v/v heat-inactivated fetal bovine serum (MEM-FBS). HepG2 cells were grown in humidified 37° C. incubators at 5% v/v CO2.
(§3) The recombinant HBV/baculovirus system used for antiviral testing has been previously described (Delaney et al., Antimicrob Agents Chernother 45(6): 1705-[…], 2001). In brief, the recombinant transfer vector was created by excising a fragment containing the 1.3× HBV genome construct and cloning it into the multiple cloning region of a baculovirus vector pBlueBac4.5 (Invitrogen, Carlsbad, Calif.). Point mutations were created by site directed mutagenesis using the commercial kits according to the manufacturers specifications (QuikChange, Stratagene). The nucleotide sequence of the plasmid and the point mutations generated by site directed mutagenesis were confirmed by sequencing using the ABI Prism Big Dye Terminator Cycle Sequencing Ready Reaction Kit according to the manufacturer's specifications (Perkin Elmer, Cetus Norwalk, Conn.). The panel of HBV mutants was generated from a wild type (WT) genotype D HBV isolate by site-directed mutagenesis. Mutants encoded either WT HBV polymerase or polymerase with the amino acid substitutions listed in Table 8 in an HBeAg negative (precore [PC] G1896A mutant) background. Other HBV mutants can be made and tested for antiviral sensitivity in a similar manner.
(§4) Purified recombinant transfer vector and linear AcMNPV baculovirus DNA were co-transfected into Sf21 cells using the BacNBlue transfection kit from Invitrogen (Carlsbad, Calif.); recombinant viruses were isolated by plaque assay according to the manufacturer's instructions. A series of recombinant viruses were amplified from isolated plaques by infecting 100-mm dishes of Sf21 cells. Viral DNA was extracted from amplified viruses using standard procedures. Purified viral DNA was digested with restriction enzymes and then fractionated by electrophoresis in a 1% […] agarose gel. Southern blotting was performed to determine which virus isolates contained the intact 1.3 HBV construct. A Boehringer Mannheim Random Prime DNA Labeling kit (Indianapolis, Ind.) was used to generate [P^32]-radiolabeled probes. A full-length double-stranded HBV genome was used as a template for all radiolabeled probes. Viral DNA sequence was confirmed by PCR amplification and sequencing of the polymerase catalytic region.
(§5) Baculoviruses were amplified by infecting suspension cultures of Sf21 cells in log phase at a multiplicity of infection (moi) of 0.5 pfu/cell. […] Virions were concentrated from infected Sf21 medium by centrifugation at 80,000×g and purified through a 20-60% w/v sucrose gradient. Purified virus was titrated in quadruplicate in Sf21 cells by end-point dilution. An aliquot of each high titer stock was used for DNA extraction. The polymerase gene was amplified and sequenced to confirm the presence of the site-directed mutagenesis.
(§6) HepG2 cells were seeded at approximately 20-40% confluency and then were grown for 16-24 hours before infection. On the day of infection, triplicate plates of cells were trypsinized, and viable cell number was determined with a hemocytometer using Trypan blue exclusion. Average cell counts were calculated and used to determine the volume of high-titer viral stock necessary to infect cells at the indicated moi. HepG2 cells were washed one time with serum-free MEM to remove traces of serum. […]

[2] = tested on: HBV mutant V173L triple (rt V173L, L180M, M204V); assay: Antiviral testing in HepG2 cells transduced with recombinant HBV/baculovirus, V173L triple mutant; assay type: cell-based, hepatitis B virus; settings: area under dose-response curve, value relative to WT = 1.0
Procedure: as §1, §2, §3, §4, §5, §6

[3] = tested on: WT HBV (genotype D isolate, precore G1896A background); assay: Antiviral testing in HepG2 cells transduced with recombinant HBV/baculovirus, wild type; assay type: cell-based, hepatitis B virus; settings: none (WT) polymerase; area under dose-response curve; values set to 1.0 (relative to WT)
Procedure: as §1, §2, §3, §4, §5, §6

[4] = tested on: HBV mutant L180M quad (rt L180M, T184G, S202I, M204V); assay: Antiviral testing in HepG2 cells transduced with recombinant HBV/baculovirus, L180M quad mutant; assay type: cell-based, hepatitis B virus; settings: area under dose-response curve, value relative to WT = 1.0
Procedure: as §1, §2, §3, §4, §5, §6

[5] = tested on: HBV; settings: 30 mg daily dose, over 12 weeks, phase II studies; cited from earlier work

| Structure (SMILES) | AUC [1] | AUC [2] | AUC [3] | AUC [4] | mean decrease in viremia [5] |
| --- | --- | --- | --- | --- | --- |
| Nc1ccn([C@@H]2CS[C@H](CO)O2)c(=O)n1 [LMV, (−)-β-2′-deoxy-3′-thiacytidine] | 363.1 | 625.3 | 1.0 | 603.4 | – |
| CC(C)(C)C(=O)OCOP(=O)(COCCn1cnc2c(N)ncnc21)OCOC(=O)C(C)(C)C [ADV, adefovir dipivoxil] | 1.7 | 0.4 | 1.0 | 1.3 | 4 log10 |
| Cc1cn([C@@H]2C[C@@H](O)[C@H](CO)O2)c(=O)[nH]c1=O [L-dT] | 13.7 | 12.7 | 1.0 | 21.1 | – |
| C=C1[C@H](CO)[C@@H](O)C[C@@H]1n1cnc2c(=O)[nH]c(N)nc21 [ETV, entecavir] | 215.9 | 47.5 | 1.0 | 242.7 | – |
| Nc1nc(=O)n([C@@H]2CS[C@H](CO)O2)cc1F [FTC, (−)-β-L-2′-3′-dideoxy-5-fluoro-3′-thiacydidine] | 761.4 | 1200.0 | 1.0 | 464.4 | – |
| CC(C)OC(=O)OCOP(=O)(CO[C@H](C)Cn1cnc2c(N)ncnc21)OCOC(=O)OC(C)C [TFV, tenofovir disoproxil fumarate] | 2.1 | 2.3 | 1.0 | 4.2 | – |
